In PMC7508583, “Discovery and Preclinical Development of Antigiardiasis Fumagillol Derivatives” (Antimicrobial Agents and Chemotherapy, 2020):
In brackets after ≈: the same amount, converted by molar mass.

Key:
[1] = system: G. lamblia GS trophozoites; parameters: method as in PMID 21078930, PMID 25267663; conditions: read-out: IC50 against assemblage B GS strain; cited from earlier work
[2] = Accelerated temperature/humidity degradation test; type: physicochemical; conditions: day 28, 37°C; for Mean ± SE degradation at 4 wk and 37°C, 75% humidity: 75% relative humidity; for Mean ± SE degradation at 4 wk and 37°C, uncontrolled humidity: uncontrolled relative humidity
Description: Accelerated temperature tests were performed at 37°C and under 75% relative humidity or laboratory uncontrolled relative humidity, comparing compounds 3 and 9 to fumagillin. Sanofi reported previously that fumagillin degraded from 98% to 85% purity when stored at 40°C for 2 weeks at ambient humidity ([42]).
For accelerated temperature degradation tests at 75% relative humidity and at laboratory uncontrolled relative humidity, fumagillin and compounds 3 and 9 were incubated at 37°C under either controlled or uncontrolled humidity, and the samples were analyzed by HPLC every week for 4 weeks. Measurements were made in duplicate. Area-under-the-curve values were calculated to derive the percentage of compound remaining. For pH degradation, the compounds were dissolved in DMSO and mixed with pH 3.0 buffer. The samples were incubated at 25°C for up to 48 h. Samples were analyzed by HPLC every 2 h for the first 8 h and then after 24 and 48 h.

[3] = system: G. lamblia GS trophozoites; parameters: method as in PMID 25267663; conditions: proliferation assay; cited from earlier work
[4] = system: G. lamblia WB trophozoites; parameters: method as in PMID 25267663; conditions: proliferation assay; cited from earlier work
[5] = system: G. lamblia WB trophozoites; parameters: method as in PMID 21078930, PMID 25267663; conditions: read-out: IC50 against assemblage A WB strain; cited from earlier work
[6] = Plasma pharmacokinetics in mice; type: in vivo, C57BL/6 female mice
Description: The mean plasma concentration-time profiles for intravenous (i.v.) and per os (p.o.) administration in C57BL/6 female mice are shown in Fig. 6A. […] In contrast, at the earliest time point (15 min) following oral administration of a 6.6-mg/kg bolus, the plasma concentration reached a maximum of ∼92 ng/ml and then decreased gradually and remained detectable for 8 h.
Plasma intravenous (i.v.) and per os (p.o.) pharmacokinetic studies were performed in C57BL/6 female mice, using two groups of three mice each. […] The second group of mice received a 6.6-mg/kg dose orally; this dose matched the therapeutic dose that cured giardiasis with no remaining proliferating trophozoites. Blood samples were withdrawn at 5, 15, and 30 min and 1, 2, 4, 8, and 24 h after administration for the i.v. treated mouse group and at the same time intervals but beginning at 15 min for the p.o. treated mouse group. The samples were extracted with 60% water-diluted acetonitrile and were frozen at −20°C until analysis.
Blank and test compound-containing samples were thawed, vortexed to ensure complete mixing of the contents, and centrifuged at 4,000 rpm at 20°C for 10 min. The supernatants were transferred into autoinjector vials. The vials were loaded, and 30-μl sample volumes were injected onto an API 4000 LC-MS/MS system. The Agilent XDB C18 column was used for the liquid chromatographic step at a flow rate of 0.6 ml/min. The mass spectrometer was operated in the electrospray ionization-positive mode. Curcumin served as an internal standard. The chromatograms were evaluated using Analyst (version 1.6.3) software.

[7] = Single-dose acute toxicity (MTD) and histopathology; conditions: in vivo
Description: The tissues of three surviving mice were analyzed along with the tissues of three animals treated with the vehicle alone. […] Based on these findings, the maximum tolerated dose (MTD) value was determined to be 1,500 mg/kg.
The maximum tolerated dose (MTD) determination was performed using 8- to 10-week-old C57BL/6 female mice in five groups of 6 animals each. The mice were acclimated to the study room for a week. Animals were randomized by body weight prior to being assigned to dosage groups at the outset of the study. […] Following an up-down dosing strategy, the clinical signs and body weights of the animals in a study group were evaluated daily for 5 days before escalating or reducing the dose administered to the next group, as appropriate. The clinical observations included posture, vocalization, ease of handling, lacrimation, chromodacryorrhea, salivation, coat appearance, rearing frequency, transfer arousal, piloerection, motor movements, tail pinch, and diarrhea.
The histopathology examination included 3 mice that survived treatment with the 2,000-mg/kg dose and 3 mice that received the vehicle alone. Brain, heart, lung, spleen, and liver tissues were examined. Formalin-fixed tissues were embedded in paraffin to produce 4-μm-thick sections. The paraffin wax was removed, and the tissues were stained with Gill’s hematoxylin for 5 to 10 min. The samples were rinsed in tap water, followed by ammonia water, and stained with eosin Y for 5 min. The hematoxylin-eosin-stained tissues were dehydrated and mounted for light microscopic examination.

**Q.** Which IC50 [1] does the source give for `CO[C@@H]1[C@H](OC(=O)/C=C/C=C/C=C/C=C/C(=O)O)CC[C@]2(CO2)[C@H]1[C@@]1(C)O[C@@H]1CC=C(C)C` [Fumagillin, reference compound] here?
**A.** The IC50 was 2 nM.

**Q.** And the “Mean ± SE degradation at 4 wk and 37°C, 75% humidity” value [2]?
**A.** The value was 30.37 ± 1.12%.

**Q.** And the “Mean ± SE degradation at 4 wk and 37°C, 75% humidity” value ([2]; listed as fumagillin)?
**A.** The value was 30.37%.

**Q.** What about the “Mean ± SE degradation at 4 wk and 37°C, uncontrolled humidity” value [2] of the same molecule?
**A.** Its value is 20.22 ± 3.90%.

**Q.** What about the “Mean ± SE degradation at 4 wk and 37°C, uncontrolled humidity” value ([2]; listed as fumagillin) of the same molecule?
**A.** The value was 20.22%.

**Q.** What about the “MLC, GS strain” value [3] of the same molecule?
**A.** The value was 0.26 µM (≈ 0.119 µg/mL).

**Q.** What about the “MLC, WB strain” value [4] of the same molecule?
**A.** The value was 0.7 µM (≈ 0.321 µg/mL).

**Q.** What about the IC50 [5] of the same molecule?
**A.** The IC50 was 10 nM.

**Q.** For `CO[C@@H]1[C@H](OC(=O)Nc2ccc(C(=O)O)cc2)CC[C@]2(CO2)[C@H]1[C@@]1(C)O[C@@H]1CC=C(C)C` [Compound 9, 4-(((((3R,4S,5S,6R)-5-methoxy-4-((2R,3R)-2-methyl-3-(3-methylbut-2-en-1-yl)oxiran-2-yl)-1-oxaspiro[2.5]octan-6-yl)oxy)carbonyl)amino)benzoic acid], which “time plasma concentration remained detectable” value ([6]; 6.6 mg/kg oral bolus) is on record?
**A.** Its value is 8 h.

**Q.** What about the maximum plasma concentration ([6]; 6.6 mg/kg oral bolus, C57BL/6 female mice) of the same molecule?
**A.** Its maximum plasma concentration is roughly 92 ng/mL.

**Q.** What about the “time point of maximum plasma concentration” value ([6]; 6.6 mg/kg oral bolus, earliest time point) of the same molecule?
**A.** Its value is 15 min.

**Q.** What about the half-life ([6]; mouse, iv, 2 mg/kg i.v., plasma, C57BL/6 female mice, read-out: calculated half-life) of the same molecule?
**A.** The half-life was 7.2 min.

**Q.** And the concentration at 5 min ([6]; mouse, plasma, intravenous, 2 mg/kg i.v. bolus, C57BL/6 female mice, read-out: plasma concentration at the 5-min time point)?
**A.** Its concentration at 5 min is roughly 136 ng/mL.

**Q.** And the concentration at 1 h ([6]; mouse, plasma, intravenous, 2 mg/kg i.v. bolus, C57BL/6 female mice, read-out: plasma concentration by 1 h after dosing (below limit of quantification))?
**A.** The concentration at 1 h was less than 5 ng/mL.

**Q.** What about the LD50 at 5 days ([7]; female, C57BL/6, mouse, po) of the same molecule?
**A.** Its LD50 at 5 days is greater than 2000 mg/kg.

**Q.** And the MTD at 5 days ([7]; female, C57BL/6, mouse, po)?
**A.** Its MTD at 5 days is 1500 mg/kg.

**Q.** And the “histopathology of liver, heart, brain, lung, spleen” value ([7]; mouse)?
**A.** The value was “normal tissue with no significant changes compared with the control tissues”.

**Q.** What about the mortality ([7]; mouse) of the same molecule?
**A.** Its mortality is “two mice died unexpectedly”.

**Q.** What about the “reduced body weight on day 3” value ([7]; mouse) of the same molecule?
**A.** The value was roughly 15%.

**Q.** What about the “weight change and clinical signs” value ([7]; mouse) of the same molecule?
**A.** The value was “no weight change and no negative clinical signs”.
